Results: patent publication US20140004209A1, “AUTOPHAGY INDUCER AND INHIBITOR COMBINATION THERAPY FOR THE TREATMENT OF NEOPLASMS” (GENENTECH, INC., priority 2010, published 2014)
Entries after “also recorded” stand apart in the source; their conditions may differ. Like-named read-outs stand apart in the source and are kept apart here.

Columns and labels:
[1] = test system: U87MG (PTEN-, PI3K mut (1391M)) cell line; experiment: CellTiter-Glo growth inhibition, III-4 and CQ combination; assay type: cell-based, human; details: 1:1.5 ratio
Procedure: (§1) FIG. 26B depicts the CI (combination index) by using bar graphs for data obtained by CellTiter-Glo assay at day 4 of treatment with 10% serum.
FIGS. 30A-B depicts data for the U87MG (PTEN-, PI3K mut (1391M)) cell line.

multiple cell lines = experiment: ED50 of CQ, AKTi and combination by CellTiter-Glo in multiple cell lines; assay type: cell-based; details: day 4, 10% serum
Source text: as §1

[2] = test system: MDA-MB-231 (Kras, Braf, p53 mut, Triple- and Basal) cell line; experiment: CellTiter-Glo growth inhibition, III-4 and CQ combination; assay type: cell-based
Source text: as §1

PC3 cells [3] = experiment: Microarray analysis of autophagy gene expression in PC3 cells; assay type: cell-based, human; details: 1 or 5 μM for 6 or 24 hours, normalized to DMSO
Procedure: PC3 cells were induced to express shRNA to indicated Akt isoforms for 72 hours by Doxycycline, RNA was extracted from both Dox treated (Dox+) or untreated control (Dox−) cells. Microarray analysis was carried out using Affymetrix chips. Ratios of the expression levels of each autophagy gene from Dox+ and Dox− samples are shown. Data are mean values from 3 independent experiments.
RNA was extracted from the cells. Microarray analysis was carried out using Affymetrix chips. Expression levels of each autophagy gene are normalized to the DMSO controls. Data are mean values from 3 independent experiments.

[4] = test system: MDA-361.1 (PI2-K mut (E545K), Her2+, HR+ and Luminal) cell line; experiment: CellTiter-Glo growth inhibition, III-4 and CQ combination; assay type: cell-based; details: 1:12.5 ratio
Source text: as §1
FIGS. 28A-B depicts data for the MDA-361.1 (PI2-K mut (E545K), Her2+, HR+ and Luminal) cell line.

[5] = test system: PC3 (PTEN-, p53- and Al) cell line; experiment: as above; assay type: cell-based, human; details: 1:25 ratio
Source text: as §1
FIGS. 27A-B depicts data for the PC3 (PTEN-, p53- and Al) cell line.

[6] = Cell death in combination with CQ (FIG. 17); assay type: cell-based
class I PI3Ks and mTOR = details: cited from earlier work
PC3 cells [7] = experiment: PC3 cell viability and cell death (PI exclusion, annexin V, caspase-3/7); assay type: cell-based, human; details: 0.5 μM III-5, 10 μM CQ, 0.5% FBS
Procedure: Cell viability and cell cycle analysis. Cell number and viability was measured using trypan blue exclusion assay using a Vi-Cell Analyzer (Beckman Coulter), or labeled with 1 μg/ml PI in PBS/1% BSA followed by cytofluorometric analysis with a fluorescence-activated cell sorter (FACS) (Becton Dickinson). FITC-conjugated Annexin V was used for the assessment of phosphatidylserine exposure by FACS analysis. Caspase activation was analyzed using a Caspase-Glo 3/7 Assay kit (Promega). For cell cycle analysis, cells were fixed with drop-wise addition of chilled 70% ethanol, washed with PBS and resuspended in staining solution containing 50 μg/ml PI and 60 units of RNAse A. DNA content was analyzed by flow cytometry using the FlowJo and ModFit software (Becton Dickinson).

class III PI3K = class III PI3K (Homo sapiens, UniProt Q8NEB9); details: cited from earlier work
Chain of class III PI3K (Q8NEB9 whole entry): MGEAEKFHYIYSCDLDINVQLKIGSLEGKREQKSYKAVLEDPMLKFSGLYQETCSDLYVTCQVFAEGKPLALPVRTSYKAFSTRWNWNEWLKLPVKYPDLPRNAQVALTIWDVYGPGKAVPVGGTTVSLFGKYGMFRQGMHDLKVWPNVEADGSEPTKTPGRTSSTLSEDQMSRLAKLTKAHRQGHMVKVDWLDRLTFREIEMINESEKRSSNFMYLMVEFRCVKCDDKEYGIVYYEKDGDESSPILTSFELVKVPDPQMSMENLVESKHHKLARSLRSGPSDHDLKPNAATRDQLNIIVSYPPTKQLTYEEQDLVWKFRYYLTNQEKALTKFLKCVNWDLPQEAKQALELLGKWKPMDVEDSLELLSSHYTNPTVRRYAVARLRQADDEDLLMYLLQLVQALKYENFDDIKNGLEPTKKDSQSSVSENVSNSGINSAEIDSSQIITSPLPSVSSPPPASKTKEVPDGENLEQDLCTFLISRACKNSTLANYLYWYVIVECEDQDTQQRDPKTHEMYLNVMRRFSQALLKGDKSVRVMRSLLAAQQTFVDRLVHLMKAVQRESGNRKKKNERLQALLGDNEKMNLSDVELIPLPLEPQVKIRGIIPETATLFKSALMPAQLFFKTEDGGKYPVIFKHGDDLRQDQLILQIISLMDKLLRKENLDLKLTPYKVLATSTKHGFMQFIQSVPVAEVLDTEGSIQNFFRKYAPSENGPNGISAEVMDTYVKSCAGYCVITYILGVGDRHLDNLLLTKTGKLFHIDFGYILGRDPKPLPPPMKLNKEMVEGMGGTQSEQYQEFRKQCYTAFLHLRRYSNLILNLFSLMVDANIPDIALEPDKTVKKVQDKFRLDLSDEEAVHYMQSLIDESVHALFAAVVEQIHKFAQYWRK

PC3 cells [8] = experiment: Autophagy markers in PC3 cells (EM AVs, GFP-LC3, LC3-II/LC3-I, MDC, AO); assay type: cell-based, human
Procedure: Western blot analysis, immunofluorescence, 1HC and TUNEL assay: For Western blot analysis, total protein lysates were subjected to SDS-PAGE and transferred to nitrocellulose. […] Detection and quantification were performed using an Odyssey infrared scanner (LICOR) using the manufacturer's software. For immunofluorescence staining, cells were fixed in 3% paraformaldehyde and permeabilized with 0.01% digitonin in PBS, followed by a rabbit polyclonal anti-LC3 (Abgent) primary antibody detected with a cy3-conjugated anti-rabbit secondary antibody (Jackson Immunoresearch). For IHC, formalin-fixed, paraffin-embedded specimens were collected. 5-μm-thick paraffin-embedded sections were stained using an anti-Ki-67 (MIB-1, DakoCytomation) antibody with the Dako ARK kit (Dako Corporation). Tissues were counterstained with haematoxylin, dehydrated, and mounted. In all cases, antigen retrieval was performed with the Dako Target Retrieval Kit as per manufacturer's instructions. For TUNEL assay, formalin-fixed, paraffin-embedded sections were stained using an in situ cell death detection kit (POD; Roche Diagnostic) according to the manufacturer's instructions.
Ultrathin sections were stained with uranyl acetate and lead citrate. Numbers of AV were counted on systematically sampled cytoplasmic areas of 4.5 μm^2 (n≧64 per condition). The percent AV area was measured by means of a square mesh grid laid over ≧5 sets of systematically sampled micrographs with each set covering a cytoplasmic area ≧80 μm^2. The average percent of apoptotic nuclei in tumor tissues was calculated from the number of apoptotic nuclei in 3 to 4 sets of 100 systematically counted tumor cell nuclei.
Multispectral imaging flow cytometry: Cells treated with various agents were stained with Acridine Orange and analyzed by the ImageStream system (Amnis Corporation, Seattle, Wash.) using the IDEAS image analysis program. The DNA AOGreen image and the vacuolar AO Red image were first compensated into separate channels, and then the percentage of apoptotic/anucleate cells (based on AO nuclear morphology and intensity) and vacuolated cells (AO Red+) were quantified. […] AORed Intensity is plotted on the second histogram with an arbitrary gate (R5) drawn to include events with the brightest AO Red intensity.

SMILES	growth inhibition, III-4 and CQ combination vs single agents [1]	ED50 of combination with CQ vs single agents (multiple cell lines)	growth inhibition, III-4 and CQ combination vs single agents [2]	autophagy gene expression (PC3 cells [3])	growth inhibition, III-4 and CQ combination vs single agents [4]	growth inhibition, III-4 and CQ combination vs single agents [5]	interaction with CQ on cell death [6]	inhibition of the class I PI3Ks and mTOR (class I PI3Ks and mTOR)	cell death, III-5 (PI-103) in combination with CQ (PC3 cells [7])	cell death, III-5 (PI-103) in combination with CQ (PC3 cells [7]; listed as PI-103)	more potent on class I than class III PI3K (class III PI3K)	less potent on the class III PI3K (class III PI3K; relative to class I PI3Ks and mTOR)	induction of AV accumulation / autophagy, agent alone (PC3 cells [8])	MDC+ vacuoles, III-5 in combination with CQ (PC3 cells [8]; 0.5 μM III-5, 10 μM CQ, 48 h)	induction of AV accumulation / autophagy, agent alone (PC3 cells [8]; listed as PI-103)
CC(C)NC[C@@H](C(=O)N1CCN(c2ncnc3c2[C@H](C)C[C@H]3O)CC1)c1ccc(Cl)cc1 [III-4, (S)-2-(4-chlorophenyl)-1-(4-((5R,7R)-7-hydroxy-5-methyl-6,7-dihydro-5H-cyclopenta[d]pyrimidin-4-yl)piperazin-1-yl)-3-(isopropylamino)propan-1-one]	the combination inhibits growth in the cell line at lower concentrations of III-4 than either III-4 alone or CQ alone	significantly lowers the ED50 for both the AKTi and CQ	the combination inhibits growth in the cell line at lower concentrations of III-4 than either III-4 alone or CQ alone	induce autophagy gene expression	the combination inhibits growth in the cell line at lower concentrations of III-4 than either III-4 alone or CQ alone	the combination inhibits growth in the cell line at lower concentrations of III-4 than either III-4 alone or CQ alone	synergize with CQ to accelerate cell death	–	–	–	–	–	–	–	–
Oc1cccc(-c2nc(N3CCOCC3)c3oc4ncccc4c3n2)c1 [III-5]	–	–	–	–	–	–	–	nanomolar concentrations	CQ accelerated cell death in combination with III-5; also recorded: combination with CQ accelerated the death of cells	significantly accelerated death rate	1,000 ×	> 1,000 fold	potent at inducing the accumulation of AVs	CQ dramatically increased the size and number of MDC+ vacuoles	induced overt autophagy
